Measured values reported in patent publication US11103493B2, “Substituted pyridinyl compounds as indoleamine 2,3-dioxygenase (IDO) inhibitors” (Merck Sharp & Dohme Corp., priority 2017, dated 2021).

Experiments:
IDO1 [1] = target: T1, IDO1 (Homo sapiens, UniProt P14902); assay: IDO1 Cellular Assay in HeLa Cells Stimulated with IFNγ; assay type: cell-based; details: IFNγ 100 ng/mL, 300 uM L-tryptophan, about 48 hours incubation, fluorescence readout, read-out: IDO1 HeLa Cell Assay, IC50
Protocol: IDO1 Cellular Assay in HeLa Cells Stimulated with IFNγ
HeLa cells were cultured in complete HeLa culture medium (90% EMEM, 10% heat-inactivated fetal bovine serum) and expanded to about 1×10^9 cells. The cells were then collected and frozen down at 1×10^7 cells/vial in 1 mL frozen medium (90% complete HeLa culture medium, 10% DMSO).
Compounds to be tested were serially diluted in ten 3-fold steps in DMSO starting from 10 mM DMSO stocks in Echo low volume plate(s).
Frozen HeLa cells were thawed and transferred into HeLa assay medium (99% complete HeLa culture medium, 1% Pen/Strep) with 20 mL medium/vial of cells. The cells were spun down at 250 g in a table top centrifuge for 5 min and suspended in same volume of HeLa assay medium. The cells were then counted and adjusted to a density of 2×10^5 cells/mL in HeLa assay medium. Sterile L-tryptophan were added to the cells with final concentration of 300 uM L-tryptophan. A small aliquot (2 mL/plate) of HeLa cells were set aside and were not treated with IFNγ, to serve as the Max-E control.
HeLa cells with and without IFNγ were dispensed to the respective wells of 384-well assay plates containing the compounds. The plates were incubated for about 48 hours at a 37° C., 5% CO2 incubator. Afterwards, 12 μL of 0.5 M methyl isonipecotate in dimethyl sulfoxide were added into each well and the plates were sealed and incubated at 37° C. without CO2 overnight. The plates were centrifuged for 1 min at 200×g. The resulting fluorescence was measured in a Spectramax plate reader (Molecular Devices) with a 400 nm excitation filter and a 510 nm emission filter.
Potencies were calculated by […] least squares fit to the four parameter logistic IC50 equation.

IDO1 [2] = target: T1, IDO1; assay: IDO1 Human Whole Blood Assay; assay type: cell-based; details: LPS and IFNγ 100 ng/mL, 18 h, kynurenine by LC/MS/MS
Protocol: IDO1 Human Whole Blood Assay
Compounds to be tested were serially diluted in ten 3-fold steps in DMSO starting from 10 mM. 3 μL of compound dilutions or DMSO alone were then dispensed from the dilution plate into a polypropylene 96-well assay plate containing 97 μL of RPMI medium using an Echo 555 acoustic liquid handler (Labcyte). LPS and IFNγ was prepared in RPMI medium to a 10× of final conc. (1000 ng/mL), final concentration is 100 ng/mL.
Human whole blood was drawn in sodium heparin coated tubes from healthy internal donors. 240 μL of blood was transferred to each of the wells of a v-bottom 96 well plate. 30 μL of compound was transferred from intermediate dilution plate, and incubated for 15 min. 30 μL from stimulants was then transferred to blood and mixed thoroughly. Plate was covered with breathable membrane and incubated at 37° C. for overnight (18 h).
On day 2, isotope labeled standard solutions of kunurenine and tryptophan was made in water at 10× concentration and 30 μL was added to the blood at […] concentration. The assay plates were centrifuged at 300×G for 10 min with no brake to separate plasma from red blood cells. 60 μL of plasma samples was removed without disturbing red blood cells. Plasma was diluted with RPMI in 1:1 ratio and proteins were precipitated out with two volumes of Acetonitrile. The plates were centrifuged at 4000×G for 60 min. 20 μL of supernatant was carefully transferred to a 384 well plate containing 40 μL of 0.1% formic acid in water and analyzed by LC/MS/MS.
LC/MS/MS analyses were performed using Thermo Fisher's LX4-TSQ Quantum Ultra system. This system consists of four Agilent binary high-performance liquid chromatography (HPLC) pumps and a TSQ Quantum Ultra triple quadrupole MS/MS instrument. For each sample, 5 μL were injected onto an Atlantis T3 column (2.1 mm×150 mm, 3 μm particle size) from Waters. The mobile phase gradient pumped at 0.8 mL/min was used to elute the analytes from the column at 25° C. The elution started at 0% B increasing linearly to 25% B at 6.5 min, holding at 25% for 1 min, re-equilibrating to 10 min. Mobile phase A consisted of 0.1% formic acid in water. Mobile phase B consisted of 0.1% of formic acid in acetonitrile. Data was acquired in positive mode using a HESI interface. The operational parameters for the TSQ Quantum Ultra instrument were a spray voltage of 4000 V, capillary temperature of 380° C., vaporizer temperature 400° C., shealth gas 60 arbitrary units, Aux gas 20 arbitrary units, tube lens 85 and collision gas 1.2 mTorr. SRM chromatograms of kynurenine (QI: 209.2>Q3:94.0) and internal standard (QI: 215.3>Q3:98.2) were collected for 90 sec. The peak area was integrated by Xcalibur Quan software. The ratios between the kynurenine generated in the reaction and 2D6-Kynurenine spiked-in internal standard were used to generate percentage inhibition and IC50 values. Compounds were titrated and IC50's were calculated by 4 parameter sigmoidal curve fitting formula.

T1 sequence (P14902 whole entry): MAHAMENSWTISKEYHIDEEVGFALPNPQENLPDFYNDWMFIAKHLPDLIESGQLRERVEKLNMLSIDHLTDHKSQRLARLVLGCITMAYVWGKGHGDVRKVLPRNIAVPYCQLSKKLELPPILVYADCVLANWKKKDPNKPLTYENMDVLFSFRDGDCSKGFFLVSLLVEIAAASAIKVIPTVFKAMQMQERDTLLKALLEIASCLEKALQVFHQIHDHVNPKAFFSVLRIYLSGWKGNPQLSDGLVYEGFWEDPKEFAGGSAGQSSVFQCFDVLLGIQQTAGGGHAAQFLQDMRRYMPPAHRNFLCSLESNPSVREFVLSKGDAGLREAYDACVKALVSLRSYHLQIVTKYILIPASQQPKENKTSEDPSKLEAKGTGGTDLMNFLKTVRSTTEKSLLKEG

Row | SMILES | IC50 (IDO1 [1]) | IC50 (IDO1 [2])
1 | O=C(Nc1ccc(C2(c3nc4ncc(C(F)(F)F)cc4[nH]3)CCC2)cn1)c1cccc(Cl)c1 [Ex. 7, 3-chloro-N-(5-{1-[6-(trifluoromethyl)-1H-imidazo[4,5-b]pyridin-2-yl]cyclobutyl}pyridin-2-yl)benzamide] | 5.66 nM | 273 nM
2 | Cc1cc(C)c2[nH]c(C3(c4ccc(NC(=O)c5cccc(Cl)c5)nc4)CCC3)nc2c1 [Ex. 8, 3-chloro-N-{5-[1-(5,7-dimethyl-1H-benzimidazol-2-yl)cyclobutyl]pyridin-2-yl}benzamide] | 4.69 nM | 493 nM
3 | Cc1cc(Cl)cc2nc(C3(c4ccc(NC(=O)c5cccc(Cl)c5)nc4)CCC3)[nH]c12 [Ex. 9, 3-chloro-N-{5-[1-(5-chloro-7-methyl-1H-benzimidazol-2-yl)cyclobutyl]pyridin-2-yl}benzamide] | 5.1 nM | 504 nM
4 | Cc1ccc2nc(C3(c4ccc(NC(=O)c5cccc(Cl)c5)nc4)CCC3)[nH]c2c1C [Ex. 10, 3-chloro-N-{5-[1-(6,7-dimethyl-1H-benzimidazol-2-yl)cyclobutyl]pyridin-2-yl}benzamide] | 5.23 nM | 501 nM
5 | Cc1ccc2nc(C3(c4ccc(NC(=O)c5cccc(Cl)c5)nc4)CCC3)[nH]c2c1 [Ex. 13, 3-chloro-N-{5-[1-(6-methyl-1H-benzimidazol-2-yl)cyclobutyl]pyridin-2-yl}benzamide] | 2.79 nM | 125 nM
6 | O=C(Nc1ccc(C2(c3nc4cc(F)c(F)cc4[nH]3)CCC2)cn1)c1cccc(Cl)c1 [Ex. 16, 3-chloro-N-{5-[1-(5,6-difluoro-1H-benzimidazol-2-yl)cyclobutyl]pyridin-2-yl}benzamide] | 7.77 nM | 889 nM
7 | O=C(Nc1ccc(C2(c3nc4cc(F)cc(F)c4[nH]3)CCC2)cn1)c1cccc(Cl)c1 [Ex. 17, 3-chloro-N-{5-[1-(5,7-difluoro-1H-benzimidazol-2-yl)cyclobutyl]pyridin-2-yl}benzamide] | 4.9 nM | 829 nM
8 | O=C(Nc1ccc(C2(c3nc4ccc(C(F)(F)F)cc4[nH]3)CCC2)cn1)c1cccc(Cl)c1 [Ex. 19, 3-chloro-N-(5-{1-[6-(trifluoromethyl)-1H-benzimidazol-2-yl]cyclobutyl}pyridin-2-yl)benzamide] | 2.42 nM | 279 nM
9 | O=C(Nc1ccc(C2(c3nc4ccc(Cl)cc4[nH]3)CCC2)cn1)c1cccc(Cl)c1 [Ex. 21, 3-chloro-N-{5-[1-(6-chloro-1H-benzimidazol-2-yl)cyclobutyl]pyridin-2-yl}benzamide] | 1.89 nM | 80.9 nM
10 | O=C(Nc1ccc(C2(c3nc4ccc(OC(F)F)cc4[nH]3)CCC2)cn1)c1cccc(Cl)c1 [Ex. 23, 3-chloro-N-(5-{1-[6-(difluoromethoxy)-1H-benzimidazol-2-yl]cyclobutyl}pyridin-2-yl)benzamide] | 7.67 nM | 1070 nM
11 | O=C(Nc1ccc(C2(c3nc4cccc(CO)c4[nH]3)CCC2)cn1)c1cccc(Cl)c1 [Ex. 24, 3-chloro-N-(5-{1-[7-(hydroxymethyl)-1H-benzimidazol-2-yl]cyclobutyl}pyridin-2-yl)benzamide] | 6.65 nM | 826 nM
12 | O=C(Nc1ccc(C2(c3nc4cccc(F)c4[nH]3)CCC2)cn1)c1cccc(Cl)c1 [Ex. 25, 3-chloro-N-{5-[1-(7-fluoro-1H-benzimidazol-2-yl)cyclobutyl]pyridin-2-yl}benzamide] | 7.21 nM | 691 nM
13 | Cc1cc2nc(C3(c4ccc(NC(=O)c5cccc(Cl)c5)nc4)CCC3)[nH]c2cc1F [Ex. 27, 3-chloro-N-{5-[1-(6-fluoro-5-methyl-1H-benzimidazol-2-yl)cyclobutyl]pyridin-2-yl}benzamide] | 3.47 nM | 496 nM
14 | N#Cc1cccc(C(=O)Nc2ccc(C3(c4nc5cc(C(F)(F)F)cnc5[nH]4)CCC3)cn2)c1 [Ex. 28, 3-cyano-N-(5-{1-[6-(trifluoromethyl)-3H-imidazo[4,5-b]pyridin-2-yl]cyclobutyl}pyridin-2-yl)benzamide] | 23.5 nM | 2290 nM
15 | N#Cc1cccc(C(=O)Nc2ccc(C3(c4nc5cc(Cl)ccc5[nH]4)CCC3)cn2)c1 [Ex. 30, N-(5-[1-(5-chloro-1H-benzimidazol-2-yl)cyclobutyl]pyridin-2-yl}-3-cyanobenzamide] | 6.58 nM | 312 nM
16 | O=C(Nc1ccc(C2(c3nc4cccc(CCCO)c4[nH]3)CCC2)cn1)c1cccc(Cl)c1 [Ex. 32, 3-Chloro-N-(5-(1-(7-(3-hydroxypropyl)-1H-benzo[d]imidazol-2-yl)cyclobutyl)pyridin-2-yl)benzamide] | 5.4 nM | 446 nM
17 | O=C(O)Cc1cccc2nc(C3(c4ccc(NC(=O)c5cccc(Cl)c5)nc4)CCC3)[nH]c12 [Ex. 33, 2-(2-(1-(6-(3-Chlorobenzamido)pyridin-3-yl)cyclobutyl)-1H-benzo[d]imidazol-7-yl)acetic acid] | 20.7 nM | 1600 nM
18 | N#Cc1cccc(C(=O)Nc2ccc(C3(c4nc5cccc(CCO)c5[nH]4)CCC3)cn2)c1 [Ex. 34, 3-Cyano-N-(5-(1-(7-(2-hydroxyethyl)-1H-benzo[d]imidazol-2-yl)cyclobutyl)pyridin-2-yl)benzamide] | 24.8 nM | 3290 nM
19 | N#Cc1cccc(C(=O)Nc2ccc(C3(c4nc5cccc(C(=O)N6CCC(O)CC6)c5[nH]4)CCC3)cn2)c1 [Ex. 37, 3-Cyano-N-(5-(1-(7-(4-hydroxypiperidine-1-carbonyl)-1H-benzo[d]imidazol-2-yl)cyclobutyl)pyridin-2-yl)benzamide] | 5.38 nM | 58.2 nM
20 | N#Cc1cccc(C(=O)Nc2ccc(C3(c4nc5cccc(C(=O)N6CCCC6)c5[nH]4)CCC3)cn2)c1 [Ex. 38, 3-cyano-N-(5-{1-[7-(pyrrolidine-1-carbonyl)-1H-benzimidazol-2-yl]cyclobutyl}pyridin-2-yl)benzamide] | 2.18 nM | 220 nM
21 | N#Cc1cccc(C(=O)Nc2ccc(C3(c4nc5ncc(C(F)(F)F)cc5[nH]4)CCC3)nc2)c1 [Ex. 45, 3-Cyano-N-(6-(1-(6-(trifluoromethyl)-1H-imidazo[4,5-b]pyridin-2-yl)cyclobutyl)pyridin-3-yl)benzamide] | 4.98 nM | 5780 nM
22 | N#Cc1cccc(C(=O)Nc2ccc(C3(c4nc5ccccc5[nH]4)CCC3)nc2)c1 [Ex. 46, N-(6-(1-(1H-benzo[d]imidazol-2-yl)cyclobutyl)pyridin-3-yl)-3-cyanobenzamide] | 6.11 nM | 1690 nM
